# In patent US6333340A, “Small molecule sulfonamides for vision and memory disorders” (Gpi Nil Holdings, Inc., priority 1998, dated 2001):
# Columns and labels:
# [1] = system: streptozotocin-induced diabetic rat; assay: Streptozotocin-induced diabetic sensory neuropathy, hot plate and tail flick tests; format: in vivo, Male Wistar rats; details: 10 mg/kg s.c., 6 weeks
# Method: The procedure involved using Male Wistar rats which were given a single injection of streptozotocin (65 mg/kg i.v.). Blood glucose levels were determined weekly for the first three weeks and on the last week of the experiment. Animals were evaluated weekly for signs of sensory neuropathy using the conventional hot plate and tail flick apparatus test procedures.
# [2] = system: optic nerve axons and myelin; assay: Retinal ischemia, degeneration of optic nerve axons and myelin (toluidine blue); format: in vivo, rat
# FKBP12 = FKBP12 (Homo sapiens, UniProt P62942); assay: Inhibition of peptidyl-prolyl isomerase (rotamase) activity of FKBP, chymotrypsin-coupled assay; format: biochemical; details: Table V; read-out: Ki rotomase
# Chain of FKBP12 (P62942 whole entry): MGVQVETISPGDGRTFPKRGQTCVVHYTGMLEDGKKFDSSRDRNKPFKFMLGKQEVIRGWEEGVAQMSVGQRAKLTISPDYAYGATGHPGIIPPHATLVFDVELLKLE
# Text: The inhibition of the prolyl peptidyl cis-trans isomerase activity of FKBP may be measured as an indicator of this affinity.
# Inhibition of the peptidyl-prolyl isomerase (rotamase) activity of the compounds used in the inventive methods and pharmaceutical compositions can be evaluated by known methods described in the literature (Harding et al., Nature, 1989, 341:758-760; Holt et al. J. Am. Chem. Soc., 115:9923-9938). These values are obtained as apparent Ki 's and are presented for representative compounds in TABLE B.
# The cis-trans isomerization of an alanine-proline bond in a model substrate, N-succinyl-Ala-Ala-Pro-Phe-p-nitroanilide, is monitored spectrophotometrically in a chymotrypsin-coupled assay, which releases para-nitroanilide from the trans form of the substrate. The inhibition of this reaction caused by the addition of different concentrations of inhibitor is determined, and the data is analyzed as a change in first-order rate constant as a function of inhibitor concentration to yield the apparent Ki values.
# In a plastic cuvette are added […] of ice cold assay buffer (25 mM HEPES, pH 7.8, 100 mM NaCl), 10 mL of FKBP (2.5 mM in 10 mM Tris-Cl pH 7.5, 100 mM NaCl, 1 mM dithiothreitol), 25 mL of chymotrypsin (50 mg/ml in 1 mM HCl) and […] of test compound at various concentrations in dimethyl sulfoxide. The reaction is initiated by the addition of 5 mL of substrate (succinyl-Ala-Phe-Pro-Phe-para-nitroanilide, 5 mg/mL in 2.35 mM LiCl in trifluoroethanol).
# The absorbance at 390 nm versus time is monitored for 90 seconds using a spectrophotometer and the rate constants are determined from the absorbance versus time data files.
# [3] = system: retinal ganglion cell axons; assay: Protection of retinal ganglion cell axons from degeneration following optic nerve transection, RT 97 axon density (Table V); format: in vivo
# Text: Efficacy of representative compounds from different immunophilin ligand series in protecting retinal ganglion cell axons from degeneration following optic nerve transection is set forth in Table V.
# [4] = Clearance (comments of Table V); format: in vitro ADME
# peripheral nerve = assay: Peripheral nerve regeneration; details: in vivo
# [5] = system: central and peripheral nervous systems; details: Proc. Nat'l. Acad. Sci. USA 94, 2019-2024, 1997; cited from earlier work
# [6] = 28 days after 1 hour retinal ischemic episode
compound,measurement,setting,value
CCC(C)(C)C(=O)C(=O)N1CCC[C@H]1C(=O)OCCCc1cccnc1 [GPI 1046],behavioral sequelae of diabetic sensory neuropathy,[1],ameliorates the behavioral sequelae of diabetic sensory neuropathy
same,"latency, hot plate",[1],improvement in latency
same,"latency, tail flick",[1],improvement in latency
same,density of degenerating myelin figures,[2]; [6],dramatically decreased the density of degenerating myelin figures
same,protection of optic nerve axons from degeneration,[2]; [6],protected the majority of optic nerve axons from degeneration
same,protection of optic nerve element from ischemic degeneration,[2]; retinal ischemia,dramatic protection of optic nerve element from ischemic degeneration
same,Ki,FKBP12,7.5 nM
same,RT 97 RCC axon density 11 days after ON transection (36 ON axon rescued),[3],60.5%
same,Clearance,[4],3.8 µL/min
same,peripheral nerve regeneration,peripheral nerve,enhance peripheral nerve regeneration
same,repair and regeneration in the central and peripheral nervous systems,[5],promote repair and regeneration in the central and peripheral nervous systems
